We go through one molecule from patent US20080057140A1, “Use of a Lignan for the Manufacture of a Composition for Preventing or Alleviating of Symptoms Relating to Estrogen Deficiency” (priority 2005, published 2008).

The conditions of series [1]: disclosed in WO 00/59946; cited from earlier work.
Series [2] in a line: plasma enterolactone after 7-hydroxymatairesinol capsules in human subjects. In kind it is in vivo. The conditions noted are these: healthy male volunteers, capsules 315 mg/day (3 x 105 mg), 29 days, FIG. 2. On the procedure:
The data for experimental days 1 and 29 is shown. On the x-axis, the time (hrs) after the first 105 mg dose is shown. The arrows denote the administration of the three 105 mg HMRlignan™ (hydroxymatairesinol) doses during the test days 1 and 29. N=6.
In brief, healthy male volunteers ingested capsule preparation of 7-hydroxymatairesinol, at total daily dose of 315 mg, divided in three 105 mg portion for morning, afternoon and evening dose. The subjects ingested the product continuously for 29 days. […] The levels were measured with a high-performance liquid chromatography coupled with tandem mass spectrometer system (Applied Biosystems Inc.).

With `COc1cc(C[C@H]2C(=O)OC[C@@H]2[C@H](O)c2ccc(O)c(OC)c2)ccc1O` [7-hydroxymatairesinol], in series [1], the “conversion to enterolactone in vivo” value is listed as “efficiently converted to enterolactone”. The circulating enterolactone concentration entry in series [2] was “sustained increase”.
